From patent US6590140B1, “Metal-regulated transporters and uses therefor” (Trustees of Dartmouth College, priority 1996, dated 2003)

What was measured:
zrt1zrt2 strain = test: Cell-associated zinc, zrt1zrt2 strain; format: cell-based, Saccharomyces cerevisiae
Procedure: Zinc uptake assays were performed as described previously for iron uptake (Eide et al. (1992) J. Biol. Chem. 267:20774-20781) except that ^65ZnCl2 (Amersham) and LZM-EDTA were substituted for ^59FeCI3 and LIM-EDTA, respectively. Cells were incubated for 5 minutes in LZM-EDTA plus the indicated concentration of ^65Zn, collected on glass fiber filters (Schleicher and Schuell), washed with 10 ml ice-cold SSW (1 mM EDTA, 20 mM trisodium citrate, 1 mM KH2PO4, 1 mM CaCl2, 5 mM MgSO4, 1 mM NaCl pH 4.2), and cell-associated radioactivity was measured by liquid scintillation counting. […] Michaelis-Menten kinetic values were determined using […] software (Intellikinetics, Princeton, N.J.). […] The statistical significance of the differences of values relative to controls was determined with one-way analysis of variance (ANOVA) followed by a Dunnett multiple comparison test. β-galactosidase activity was assayed in cells harvested at an OD600 of 0.5-2.0 as described by Guarente (Guarente, L. (1983) Methods Enzymol. 101:181-191) and activity is expressed as the change in absorbance at 420 nm×1000 divided by (min×ml of culture used×OD600 of the culture). Cell-associated zinc was measured in parallel cultures supplemented with tracer amounts of ^65Zn (10 μM) and nonradioactive zinc to the indicated final concentration. […]

ZRT1 promoter = test: ZRT1-lacZ fusion β-galactosidase assay; format: cell-based, Saccharomyces cerevisiae; conditions: LZM-EDTA, 16 hours
Procedure: Zinc uptake assays were performed as described previously for iron uptake (Eide et al. (1992) J. Biol. Chem. 267:20774-20781) except that ^65ZnCl2 (Amersham) and LZM-EDTA were substituted for ^59FeCI3 and LIM-EDTA, respectively. Cells were incubated for 5 minutes in LZM-EDTA plus the indicated concentration of ^65Zn, collected on glass fiber filters (Schleicher and Schuell), washed with 10 ml ice-cold SSW (1 mM EDTA, 20 mM trisodium citrate, 1 mM KH2PO4, 1 mM CaCl2, 5 mM MgSO4, 1 mM NaCl pH 4.2), and cell-associated radioactivity was measured by liquid scintillation counting. Cells were starved for glucose by incubating them in LZM-EDTA prepared without glucose for one hour at 30° C. prior to assay. Michaelis-Menten kinetic values were determined using […] software (Intellikinetics, Princeton, N.J.). Stock solutions of the chloride salts of Co, Cu, Mg, Mn, and Ni were prepared in distilled water at a concentration of 100 mM. The nonradioactive ZnCl2 stock was prepared at 100 mM in 0.02 N HCl and the FeCl3 stock was prepared at 50 mM in 0.1 N HCl. The statistical significance of the differences of values relative to controls was determined with one-way analysis of variance (ANOVA) followed by a Dunnett multiple comparison test. β-galactosidase activity was assayed in cells harvested at an OD600 of 0.5-2.0 as described by Guarente (Guarente, L. (1983) Methods Enzymol. 101:181-191) and activity is expressed as the change in absorbance at 420 nm×1000 divided by (min×ml of culture used×OD600 of the culture). Cell-associated zinc was measured in parallel cultures supplemented with tracer amounts of ^65Zn (10 μM) and nonradioactive zinc to the indicated final concentration. Aliquots (0.5 ml) were filtered, washed with 10 ml ice-cold SSW, and radioactivity measured by liquid scintillation.
The effects of the zrt2 mutation on the regulation of the ZRT1 gene was also examined. […] Furthermore, cell-associated zinc levels are much lower in the zrt1 mutant grown in zinc-limiting conditions. At higher concentrations of extracellular zinc, however, these levels increased to the wild type levels. It was proposed that this accumulation was the result of zinc uptake by the low affinity system. To test this hypothesis and determine the effect of the zrt2 mutation on the pool of intracellular zinc that regulates ZRT1 gene expression, β-galactosidase activity from the ZRT1-lacZ fusion in wild type, zrt1, zrt2, and zrt1zrt2 mutant strains grown in media supplemented with a broad range of zinc concentrations was measured. […] These values are also plotted against the calculated free zinc concentration ([Zn]F). […]

Compound: [Zn+2] [zinc]
- cell-associated zinc (zrt1zrt2 strain; 10 μM total zinc): 5±0.6 pmol/10^6 cells
- cell-associated zinc (zrt1zrt2 strain; 1000 μM total zinc): 86±21 pmol/10^6 cells
- calculated free zinc [Zn]F at which β-galactosidase activity decreased to its minimal level (ZRT1 promoter; zrt1 mutant): ~0.12 µM
- total zinc at which β-galactosidase activity decreased to its minimal level (ZRT1 promoter; zrt1 mutant): 10 µM
- calculated free zinc [Zn]F at which ZRT1-lacZ expression was down-regulated (ZRT1 promoter; zrt1zrt2 mutant): ~2.4 µM
- total zinc concentration at which ZRT1-lacZ expression was down-regulated (ZRT1 promoter; zrt1zrt2 mutant): ≥ 200 µM
